Ki and Km data for two molecules are collected here from PMC8261047, “In vivo Inhibition of the 3-Dehydroquinate Synthase by 7-Deoxysedoheptulose Depends on Promiscuous Uptake by Sugar Transporters in Cyanobacteria” (Frontiers in Microbiology, 2021).

In data set [1] the target is T1, 3-dehydroquinate synthase (AvDHQS, Ava_4386) (Trichormus variabilis, UniProt Q3M4V2).
T1 construct: gene aroB; Ava_4386 in pET22b, C-terminal His-Tag, ∼39 kDa
T1 sequence (Q3M4V2 1-363): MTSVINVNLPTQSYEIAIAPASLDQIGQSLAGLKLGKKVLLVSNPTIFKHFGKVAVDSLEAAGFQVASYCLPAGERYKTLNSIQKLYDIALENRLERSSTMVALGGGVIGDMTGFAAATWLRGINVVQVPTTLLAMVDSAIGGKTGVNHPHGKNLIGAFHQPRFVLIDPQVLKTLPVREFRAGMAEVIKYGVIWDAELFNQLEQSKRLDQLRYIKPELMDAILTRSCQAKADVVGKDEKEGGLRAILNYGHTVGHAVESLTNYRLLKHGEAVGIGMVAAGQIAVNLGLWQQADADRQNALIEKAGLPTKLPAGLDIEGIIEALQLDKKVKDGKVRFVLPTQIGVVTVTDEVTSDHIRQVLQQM
Briefly: Malachite green phosphate release assay with purified AvDHQS; Michaelis-Menten kinetics at […] 7dSh. The data set is classed as biochemical.

Substrate in data set [2]: O=C(O)C(=O)C[C@@H](O)[C@H](O)[C@H](O)COP(=O)(O)O
Briefly: Malachite green phosphate release assay with purified AvDHQS; kM of the substrate. The data set is classed as biochemical, Trichormus variabilis. As to conditions: NAD^+.

One may read the Ki as a dissociation constant, usually derived from enzyme kinetics or from competition with a known ligand. A high value points to lower affinity. For `C[C@@H](O)[C@@H](O)[C@@H](O)[C@H](O)C(=O)CO` [7dSh, 7-deoxy-D-altro-2-heptulose], the Ki in data set [1] turned out to be 17.6 µM.

B1: 3-dehydroquinate synthase (AvDHQS, Ava_4386) (Trichormus variabilis ATCC 29413) (protein)
chain: T1 sequence (Q3M4V2 1-363)
notes: Ava_4386 in pET22b, C-terminal His-Tag, ∼39 kDa
As a reminder, the Km is the substrate concentration at which the rate is half of its maximum. As to B1, in data set [2], the Km worked out at 1.8 ± 0.3 µM.
